Like-named read-outs stand apart in the source and are kept apart here.
Assays:
[1] = Phase one study part 2: multiple dose (28 days) plasma PK of free and total DGLA; type: in vivo, human; details: for Tmax / half-life: human, plasma, oral; for half-life: read-out: t1/2, median, free DGLA, baseline-corrected plasma (converted); for free DGLA Peak Trough Fluctuation (PTF), mean: steady state Day 28 (0-24 hours)
Method: Multiple dose part two of the study comprised two cohorts (Cohorts five and six) of eight subjects each, who were administered multiple doses of study drug in the fasted state for 28 days. Subjects in Cohorts five and six received DS107G at 2000 or 4000 mg, respectively, or matching placebo once daily for 28 days. Cohort six was started after Cohort five's safety data were evaluated by the SMC. No interim analysis was planned. […]
In Part two of the study (Cohorts five and six), subjects were administered study drug (500-mg DS107G capsules or matching placebo capsules) once daily in the fasted state for 28 days. Subjects in Cohort five received study drug first and, if they tolerated the 2000-mg daily dose for the first 14 days, subjects in Cohort six were started on the 4000-mg daily dose for 28 days.
PK parameter was computed after correcting the dosed DGLA concentrations with baseline DGLA concentrations.

[2] = Phase one study part 2: free and total DGLA in skin blister fluid; type: in vivo, human
From the text: The PK of DGLA in human skin following multiple doses of DS107G capsule given once daily for 28 days to healthy subjects.

[3] = 4000 mg once daily, Day 28, 0 to 24 hours
[4] = 4000 mg once daily, Day 28, 0 to 168 hours
[5] = 4000 mg once daily, Day 28: 0 to 24 hours

In the case of `CCCCC/C=C\C/C=C\C/C=C\CCCCCCC(=O)O` [DS107G, Dihomo gamma linolenic acid], the “AUC0-24/Dose, mean, total DGLA, baseline-corrected plasma” value [1, 3] was 465.14 h/kL, the “AUC0-inf, mean, free DGLA, baseline-corrected plasma” value [1, 3] was 22.9263 µg·h/mL and the “AUC0-inf/Dose, mean, free DGLA, baseline-corrected plasma” value [1, 3] was 5.73 h/kL. The “AUC0-inf/Dose, mean, total DGLA, baseline-corrected plasma” value [1, 3] was 1194.91 h/kL, the “CL/F, mean, free DGLA, baseline-corrected plasma” value [1, 3] was 0.1865 kL/h and the “Cmax, mean, free DGLA, baseline-corrected plasma” value [1, 3] was 2.8732 µg/mL. The “Cmax/Dose, mean, free DGLA, baseline-corrected plasma” value [1, 3] was 0.718 kL⁻¹, the “Cmax/Dose, mean, total DGLA, baseline-corrected plasma” value [1, 3] was 22.717 kL⁻¹ and the “λz, mean, free DGLA, baseline-corrected plasma” value [1, 3] was 0.0596 h⁻¹. The “λz, mean, total DGLA, baseline-corrected plasma” value [1, 3] was 0.0471 h⁻¹, the “AUC0-24, mean, free DGLA, baseline-corrected plasma” value [1, 4] was 16.1552 µg·h/mL and the “AUC0-24/Dose, mean, free DGLA, baseline-corrected plasma” value [1, 4] was 4.04 h/kL. For the same compound, the “AUC0-24/Dose, mean, total DGLA, baseline-corrected plasma” value [1, 4] was 465.14 h/kL, the “AUC0-inf, mean, free DGLA, baseline-corrected plasma” value [1, 4] was 43.1843 µg·h/mL and the “AUC0-inf/Dose, mean, free DGLA, baseline-corrected plasma” value [1, 4] was 10.80 h/kL. For the same compound, the “AUC0-inf/Dose, mean, total DGLA, baseline-corrected plasma” value [1, 4] was 1575.98 h/kL, the “CL/F, mean, free DGLA, baseline-corrected plasma” value [1, 4] was 0.1266 kL/h and the “Cmax, mean, free DGLA, baseline-corrected plasma” value [1, 4] was 2.8732 µg/mL. For the same compound, the “Cmax/Dose, mean, free DGLA, baseline-corrected plasma” value [1, 4] was 0.718 kL⁻¹, the “Cmax/Dose, mean, total DGLA, baseline-corrected plasma” value [1, 4] was 22.717 kL⁻¹ and the “λz, mean, free DGLA, baseline-corrected plasma” value [1, 4] was 0.0404 h⁻¹. The “λz, mean, total DGLA, baseline-corrected plasma” value [1, 4] was 0.0194 h⁻¹, the “% PTF (peak trough fluctuation), mean, free DGLA, steady-state baseline-corrected plasma” value [1, 5] was 431.97% and the “% PTF (peak trough fluctuation), mean, total DGLA, steady-state baseline-corrected plasma” value [1, 5] was 44.90%. For the same compound, the “AR(AUC) accumulation ratio, mean, free DGLA, steady-state baseline-corrected plasma” value [1, 5] was 1.561, the “AR(AUC) accumulation ratio, mean, total DGLA, steady-state baseline-corrected plasma” value [1, 5] was 4.163 and the “AR(Cmax) accumulation ratio, mean, free DGLA, steady-state baseline-corrected plasma” value [1, 5] was 1.385. For the same compound, the “AR(Cmax) accumulation ratio, mean, total DGLA, steady-state baseline-corrected plasma” value [1, 5] was 3.440, the “CLss/F, mean, free DGLA, steady-state baseline-corrected plasma” value [1, 5] was 0.2858 kL/h and the “CLss/F, mean, total DGLA, steady-state baseline-corrected plasma” value [1, 5] was 0.0025 kL/h. For the same compound, the “Cavg, mean, free DGLA, steady-state baseline-corrected plasma” value [1, 5] was 0.6731 µg/mL, the “Cavg, mean, total DGLA, steady-state baseline-corrected plasma” value [1, 5] was 77.5239 µg/mL and the “Cmin, mean, free DGLA, steady-state baseline-corrected plasma” value [1, 5] was 0.147 µg/mL. For the same compound, the “Cmin, mean, total DGLA, steady-state baseline-corrected plasma” value [1, 5] was 59.2167 µg/mL, the “Vzss/F, mean, free DGLA, steady-state baseline-corrected plasma” value [1, 5] was 5.7563 kL and the “Vzss/F, mean, total DGLA, steady-state baseline-corrected plasma” value [1, 5] was 0.1047 kL. The “tmin, median, free DGLA, steady-state baseline-corrected plasma” value [1, 5] was 8.00 h, the “tmin, median, total DGLA, steady-state baseline-corrected plasma” value [1, 5] was 2.00 h and the “time to reach steady-state plasma concentrations, free and total DGLA” value ([1]; 2000 and 4000 mg daily) was roughly 14 days. The “free DGLA mean baseline-corrected AUC0-24, 4000 mg vs 2000 mg dose” value ([1]; Day 1) was roughly 2.5 fold, the “free DGLA mean baseline-corrected Cmax, 4000 mg vs 2000 mg dose” value ([1]; Day 1) was roughly 3 fold and the “total DGLA mean baseline-corrected AUC0-24, 4000 mg vs 2000 mg dose” value ([1]; Day 1) was roughly 1.5 fold. The “total DGLA mean baseline-corrected Cmax, 4000 mg vs 2000 mg dose” value ([1]; Day 1) was roughly 1.5 fold, the “free DGLA mean baseline-corrected AUC0-24, 4000 mg vs 2000 mg dose” value ([1]; Day 28) was roughly 1.7 fold and the “free DGLA mean baseline-corrected Cmax, 4000 mg vs 2000 mg dose” value ([1]; Day 28) was roughly 1.4 fold. The “total DGLA mean baseline-corrected AUC0-24, 4000 mg vs 2000 mg dose” value ([1]; Day 28) was roughly 1.4 fold, the “total DGLA mean baseline-corrected Cmax, 4000 mg vs 2000 mg dose” value ([1]; Day 28) was roughly 1.2 fold and the “time of peak mean concentration of free DGLA after dosing” value ([1]; Days 1 and 28, 2000 and 4000 mg daily) was “about 4 hours”. For the same compound, the Tmax ([1]; both sexes, both dose cohorts, Day 1 and Day 28, read-out: free DGLA median tmax) was 4 to 5 h, the half-life ([1]; 2000 mg, 2000 mg once daily, Day 1, 0 to 24 hours) was 4.71 h and the Tmax ([1]; 2000 mg, 2000 mg once daily, Day 1, 0 to 24 hours, read-out: tmax, median, free DGLA, baseline-corrected plasma) was 4 h. For the same compound, the half-life ([1]; 2000 mg, 2000 mg once daily, Day 28, 0 to 24 hours) was 14 h, the Tmax ([1]; 2000 mg, 2000 mg once daily, Day 28, 0 to 24 hours, read-out: tmax, median, free DGLA, baseline-corrected plasma) was 4 h and the half-life ([1]; 2000 mg, 2000 mg once daily, Day 28, 0 to 168 hours) was 63.6 h. For the same compound, the Tmax ([1]; 2000 mg, 2000 mg once daily, Day 28, 0 to 168 hours, read-out: tmax, median, free DGLA, baseline-corrected plasma) was 4 h, the half-life ([1]; 4000 mg, 4000 mg once daily, Day 1, 0 to 24 hours) was 5.92 h and the Tmax ([1]; 4000 mg, 4000 mg once daily, Day 1, 0 to 24 hours, read-out: tmax, median, free DGLA, baseline-corrected plasma) was 5 h. The half-life ([1]; 4000 mg, 4000 mg once daily, Day 28, 0 to 24 hours) was 12.7 h, the Tmax ([1]; 4000 mg, 4000 mg once daily, Day 28, 0 to 24 hours, read-out: tmax, median, free DGLA, baseline-corrected plasma) was 4 h and the half-life ([1]; 4000 mg, 4000 mg once daily, Day 28, 0 to 168 hours) was 48.2 h. For the same compound, the Tmax ([1]; 4000 mg, 4000 mg once daily, Day 28, 0 to 168 hours, read-out: tmax, median, free DGLA, baseline-corrected plasma) was 4 h, the “increase of average concentration at steady state when dose doubled from 2000 to 4000 mg daily, free DGLA” value ([1]; in vivo) was 1.6 fold and the “increase of average concentration at steady state when dose doubled from 2000 to 4000 mg daily, total DGLA” value ([1]; in vivo) was 1.2 fold. The “free DGLA Peak Trough Fluctuation (PTF), mean” value ([1]; first value of both dose cohorts (2000 mg)) was roughly 430%, the “free DGLA Peak Trough Fluctuation (PTF), mean” value ([1]; second value of both dose cohorts (4000 mg)) was roughly 490% and the “mean free DGLA concentrations in skin blister fluid with a doubling in dose” value ([2]; Days 1, 8, 14 and 28) was “approximately doubled”. For the same compound, the “mean free DGLA concentrations in skin blister fluid, Day 28 vs Day 1” value ([2]; both 2000 and 4000 mg daily) was “about 3 fold”, the “mean concentrations of free DGLA, plasma vs skin blister fluid” value ([2]; same dose, Day 8 and Day 14 (but not Day 28)) was “somewhat similar in plasma and skin blister fluid” and the “mean concentrations of total DGLA, plasma vs skin blister fluid” value ([2]; same dose, after Day 1) was “much higher in plasma than in skin blister fluid”.

— patent US20180333382A1, “PHARMACEUTICAL COMPOSITIONS COMPRISING DGLA AND USE OF SAME” (DS Biopharma Limited, priority 2017, published 2018)
